Source: PubChem BioAssay (NCI)
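Where inhibition never reached the appropriate level, the endpoint shown equals the highest concentration tested. Otherwise, values were interpolated linearly from a five-concentration, 48-hour dose response in 96-well plates. GI50: concentration for 50% inhibition of growth. TGI denotes the concentration required for complete inhibition of growth.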

How the values were obtained:
Experiment in all cases: NCI-60 cell line screen, 48 h
[1] = system: SF-539 CNS
[2] = system: DU-145 prostate
[3] = system: SNB-75 CNS
[4] = system: SF-295 CNS
[5] = system: IGROV1 ovarian
[6] = system: HS 578T breast
[7] = system: HOP-62 NSCLC
[8] = system: OVCAR-8 ovarian
[9] = system: U251 CNS
[10] = system: SK-MEL-2 melanoma

Row | SMILES | GI50 [1] [µM] | TGI [1] [µM] | GI50 [2] [µM] | TGI [2] [µM] | GI50 [3] [µM] | TGI [3] [µM] | GI50 [4] [µM] | TGI [4] [µM] | GI50 [5] [µM] | TGI [5] [µM] | GI50 [6] [µM] | TGI [6] [µM] | GI50 [7] [µM] | TGI [7] [µM] | GI50 [8] [µM] | TGI [8] [µM] | TGI [9] [µM] | TGI [10] [µM] | GI50 [9] [µM] | GI50 [10] [µM]
1 | COc1ccc(-c2nc(-c3cc(OC)cc(OC)c3)[nH]c2-c2ccc(OC)cc2)cc1 | > 100 | > 100 | 65.5 | > 100 | > 100 | > 100 | 5.51 | > 100 | > 100 | > 100 | 8.33 | > 100 | > 100 | > 100 | 9.77 | > 100 |  |  |  | 
2 | Cc1ccccc1C1=[N+]([O-])c2ccc(Cl)cc2C1=O |  | 31.6 |  |  |  | 40.3 |  | 29.1 |  | 29.8 |  |  |  | 42.6 |  | 19.3 | 32 | 46 |  | 
3 | O=C1CCCN1c1ccccc1I(=O)=O | > 100 | > 100 | > 100 | > 100 | > 100 | > 100 | > 100 | > 100 | > 100 | > 100 | > 100 | > 100 |  |  | > 100 | > 100 | > 100 | > 100 | > 100 | > 100
4 | Cc1cccc(C2=C/C(=C(\SS/C(C(=O)c3ccc(OCC(=O)O)c(Cl)c3Cl)=C3\C=C(c4cccc(C)c4)SS3)C(=O)c3ccc(OCC(=O)O)c(Cl)c3Cl)SS2)c1 |  | 39.9 |  |  |  | > 83.5 |  | > 85.6 |  | 44.8 |  |  |  | > 100 |  | > 73.6 | 14.3 | 39.8 |  | 
5 | O=c1[nH]cnc(NC2C=C(CO)C(O)C2O)c1[N+](=O)[O-] (stereo not drawn) |  | > 100 |  |  |  | > 100 |  | > 100 |  | > 100 |  |  |  | > 100 |  | > 100 | > 100 | > 100 |  | 
6 | Cc1cc2c(c(C(N)=O)c1C)-c1ccccc1C2=O |  | > 100 |  |  |  | > 100 |  | > 100 |  | > 100 |  |  |  | > 100 |  | > 100 | > 100 | > 100 |  | 
7 | CC(C)(C)[Si](C)(C)OC1[C@@H](CNC(=O)NC(=O)CCl)O[C@@H](n2cnc3c(N)ncnc32)[C@H]1O[Si](C)(C)C(C)(C)C (stereo partly drawn) | 0.944 | 1.67 | 2.05 | 5.26 | 0.867 | 2.47 |  |  | 0.154 | 0.441 | 1.14 | 3.17 | 0.842 | 1.69 | 0.812 | 2.85 | 1.58 | 2.01 | 0.849 | 1.04
8 | COC(=O)c1cc2c(o1)-c1nccc3c1c(nc1ccccc13)C2=O | 2.69 | 9.7 | 4.26 | 22.9 |  |  | 4.51 | 18.3 | 1.4 | 4.42 | 14.2 | 37.1 | 1.4 | 11 | 2.1 | 6.38 | 38.9 |  | 5.05 | 
9 | CC1=NN(C(=O)CC(=O)Nc2ccccc2F)C(=O)C1N=Nc1ccccc1[N+](=O)[O-] (stereo not drawn) |  | > 100 |  |  |  | > 100 |  | > 100 |  | > 100 |  |  |  | > 100 |  | > 100 | > 100 | > 100 |  | 
